Reference: publication PMC11091243, “PD-L1 targeted peptide demonstrates potent antitumor and immunomodulatory activity in cancer immunotherapy” (Frontiers in Immunology, 2024)

Columns and labels:
MDA-MB-231 cells = assay: Flow cytometry binding to MDA-MB-231 cells; type: cell-based, human; details: higher PD-L1 expression than MC38
Description: (§1) Fluorescence-based ELISA and cell-based tests were used to examine the binding specificity of PPL-C to PD-L1. To perform the ELISA, fluorescent plates were coated with 100 μL human PD-L1 (hPD-L1), mouse PD-L1 (mPD-L1), and BSA in PBS (pH 7.4) overnight at 4°C, respectively. Blocked the plates with 1% BSA (in PBST) for an hour at room temperature and rinsed twice with PBST. Then added peptides (20 μmol/L FITC-labeled PPL-C/Control peptide) and incubated for 1.5 hours at room temperature. With excitation at 488 nm and emission at 515 nm, the Cytation 3 instrument (BioTek) was used to measure the relative fluorescence intensity. Both attached and detached cells were used in the cell-based flow cytometry analysis. […] After that, cells were treated for 40 minutes at 4°C on an inversion shaker with PD-L1 antibody from Biolegend and 4 μmol/L FITC-labeled peptides (PPL-C/Control peptide). Each tube was washed twice with PBS following incubation and flow cytometry was carried out using a FACSort device. FlowJo software was used to evaluate the data that was acquired.

PD-1/PD-L1 binding = target: T1, PD-1/PD-L1 binding (Homo sapiens, UniProt Q9NZQ7); assay: ELISA competition of peptides with PD-1 for binding to PD-L1; details: n = 3, effect increases with peptide concentration
T1 construct: PD-1: 10377-H08H
T1 sequence (Q9NZQ7 19-239 limits assumed): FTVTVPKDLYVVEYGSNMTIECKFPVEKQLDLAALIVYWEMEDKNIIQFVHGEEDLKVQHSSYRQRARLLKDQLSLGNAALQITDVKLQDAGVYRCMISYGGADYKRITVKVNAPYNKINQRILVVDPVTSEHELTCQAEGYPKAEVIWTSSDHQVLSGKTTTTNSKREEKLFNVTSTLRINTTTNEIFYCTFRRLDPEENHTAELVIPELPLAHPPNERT
Description: After seven phages were grown and purified, the solution was diluted 10 times to produce eight gradients. To ascertain the phage’s affinity for PD-L1, an ELISA test was run. Briefly, 96-well plates were filled with 150 µL of PD-L1 ([…]) in assay diluent (BioLegend, San Diego, CA), and incubated at 4°C overnight. 5% BSA in water was used to block the wells for two hours at 4°C. Following washing, 100 µL of phage diluent was added to each well, and they were shaken for two hours at room temperature. The wells were then treated with HRP-conjugated anti-M13 antibody at dose of 1:5000. With 100 µL of HRP substrate, the reaction was observed, and the OD410 was determined. By deducting the OD value of each phage binding to BSA-coated wells from the OD value of that phage binding to PD-L1, the specific binding of each phage to PD-L1 was computed. Three duplicate runs of this assay were made. GraphPad Prism 6 software was used to compute each phage binding affinity by nonlinear regression and convert it to a Scatchard plot. ELISA was used to evaluate the candidate peptides capacity to inhibit PD1/PD-L1 binding. The subsequent stages were the same as those previously outlined. Following incubation, OD410 was determined by goat anti-rabbit monoclonal antibody that had been HRP-labeled and rabbit anti-human PD-L1 protein monoclonal antibody.
To assess the effect of PPL-C peptide interference, PD-L1 binding to PD-1 was investigated using ELISA and cell-based analysis. For the ELISA, 100 μL of mouse PD-L1 in PBS was coated in each well of a 96-well plate and incubated the plate at 4°C overnight. On the second day, 1% BSA in PBST was used to block the plate. Each well was then filled with 200 nmol/L biotinylated PD-1 and FITC-labeled PPL-C peptides (at final concentrations of 40, 20, 10, 5, or 2.5 μmol/L) before 1.5 hours incubating at room temperature. After two PBST washes, the relative FITC fluorescence intensity was measured using a Cytation 3 instrument. […] After two PBST washes, the Cytation 3 device was used to detect PE fluorescence intensity. […] Samples were analyzed by flow cytometry.

LLC cells = assay: Flow cytometry binding to LLC cells; type: cell-based, mouse; details: higher PD-L1 expression than MC38
Description: as §1

MC38 cells = assay: Flow cytometry binding to MC38 cells; type: cell-based, mouse; details: relatively low PD-L1 expression
Description: as §1

CD4+ T cells in MLR = assay: Mixed lymphocyte reaction (DCs, CT26 tumor cells, CD4+ T cells); type: cell-based, mouse; details: 20 μmol/L, versus control and control peptides, day 3, n = 3
Description: Fresh PBMCs were cultured in IMDM at 37°C for 2 hours and washed twice in PBS. Then cells were cultured in IMDM supplemented with 10% FBS, 25 ng/mL GM-CSF, and 50 ng/mL IL-4. Fresh medium was added every three days. TNF-α (50 ng/mL) was added on the sixth day to stimulate the maturation of dendritic cells (DCs) for 24 hours. The mature DCs were then frozen to be harvested later. Solid tumor tissues from the CT26 tumor-bearing animal have been removed and fragmented to collect tumor cells. In RPMI 1640 medium supplemented with 10% FBS, 2 mM L-glutamine, […] streptomycin, and 200 U/mL penicillin, these fragments were subjected to digestion with a combination of triple enzymes (collagenase, DNase, and hyaluronidase) for a maximum of 2 hours. The resultant cell suspension was then grown in complete RPMI 1640 medium at 37°C with 5% CO2 for 24 hours. The goal of this culture phase was to re-establish PD-L1 expression on the tumor cell surface since collagenase digestion may have destroyed it. DCs and tumor cells were both given a 2-hour treatment with mitomycin C (MMC) at a dosage of 100 μg/mL before the start of mixed lymphocyte responses (MLR). After thawing, the CD4+ T cells were cultured for overnight. […] Cell growth and IFN-γ levels in culture supernatants were measured on day 3.

CC(C)[C@H](NC(=O)[C@H](CO)NC(=O)[C@@H](NC(=O)[C@@H](N)CO)C(C)C)C(=O)N[C@@H](CO)C(=O)N[C@@H](Cc1c[nH]cn1)C(=O)N[C@@H](Cc1ccccc1)C(=O)N[C@@H](CCC(N)=O)C(=O)N[C@@H](CCCCN)C(=O)N[C@H](C(=O)N[C@@H](Cc1c[nH]c2ccccc12)C(=O)N[C@H](C(=O)N[C@H](C(=O)NCC(=O)NCC(=O)NCC(=O)N[C@@H](CO)C(=O)N[C@@H](CCCCN)C(N)=O)C(C)C)C(C)C)C(C)C [PPL-C]
Affinity to MDA-MB-231 cells (MDA-MB-231 cells): higher affinity
Competition with PD-1 to bind PD-L1 (blocking of PD-L1/PD-1) (PD-1/PD-L1 binding): significant blocking effect
Affinity to LLC cells (LLC cells): higher affinity
Affinity to MC38 cells (MC38 cells): low affinity
IFN-γ release in MLR (CD4+ T cells in MLR): significantly higher release
